Laboratory results: ChEMBL document CHEMBL1156829 (Proc Natl Acad Sci U S A, 2008)

Assays:
[1] = NOVARTIS: Cytotoxicity against human hepatocellular carcinoma cell line (Huh7); type: toxicity, cell-based, Huh-7; conditions: Huh7 cells (hepatocellular carcinoma cell line)
[2] = tested on: Plasmodium falciparum; experiment: NOVARTIS: Inhibition of Plasmodium falciparum 3D7 (drug-susceptible) proliferation in erythrocyte-based infection assay; type: functional, organism-based; conditions: Plasmodium falciparum, 3D7
[3] = tested on: Plasmodium falciparum; experiment: NOVARTIS: Inhibition of Plasmodium falciparum W2 (drug-resistant) proliferation in erythrocyte-based infection assay; type: functional, organism-based; conditions: Plasmodium falciparum, W2; read-out: EC50

## CN(C)c1cc[n+](Cc2ccccc2)cc1
[1]
  CC50: > 100 µM
[2]
  EC50: 2.42 µM
[3]
  EC50: > 4.87 µM

## C=C[C@H]1CN2CC[C@H]1C[C@@H]2[C@@H](OC(=O)CCCCl)c1ccnc2ccccc12
[1]
  CC50: > 10 µM
[2]
  EC50: 0.049 µM
[3]
  EC50: 0.0968 µM

## COc1ccc(CN2CCc3nnc(CCc4ccccc4)n3CC2)c(F)c1
[1]
  CC50: > 10 µM
[2]
  EC50: > 1.06 µM
[3]
  EC50: > 1.25 µM

## Cc1ccc(C)c(NC2=C(c3ccc(C(F)(F)F)cc3)C(=O)c3ccccc32)c1
[1]
  CC50: > 100 µM
[2]
  EC50: 1.85 µM
[3]
  EC50: 4.22 µM

## CC(C)CNC(=O)c1cnc(NCCCn2ccnc2)nc1Nc1ccccc1
[1]
  CC50: > 10 µM
[2]
  EC50: 0.633 µM
[3]
  EC50: 0.639 µM

## O=C1CN(C(=O)c2cc([N+](=O)[O-])c(N3CCCCC3)c([N+](=O)[O-])c2N2CCCCC2)c2ccccc2N1
[1]
  CC50: 50.4 µM
[2]
  EC50: 2.19 µM
[3]
  EC50: 1.83 µM

## N#Cc1ccc(NC(=O)NC2CC3CCCC(C2)N3CCc2ccccc2)cc1 (centres undefined)
[1]
  CC50: 48.6 µM
[2]
  EC50: 0.362 µM
[3]
  EC50: 0.425 µM

## COCCN1C(=O)c2ccccc2C(C(=O)Nc2cccc(C(F)(F)F)c2)C1c1cccs1 (centres undefined)
[1]
  CC50: > 100 µM
[2]
  EC50: 3.83 µM
[3]
  EC50: 2.65 µM

## O=[N+]([O-])c1ccc(N2CCCN(C(=S)Nc3ccccc3)CC2)nc1
[1]
  CC50: > 100 µM
[2]
  EC50: 0.0915 µM
[3]
  EC50: 0.0801 µM

## COC(=O)C1=C(C)NC2=C(C(=O)c3ccccc32)C1c1ccc(OCC#N)c(OC)c1 (centres undefined)
[1]
  CC50: 84.9 µM
[2]
  EC50: 0.59 µM
[3]
  EC50: 1.53 µM

## O=C1C2C(C(=O)N1c1cccc3ccccc13)C1C=CC2C12CC2 (centres undefined)
[1]
  CC50: > 100 µM
[2]
  EC50: 6.59 µM
[3]
  EC50: 1.09 µM

## Cn1c(SCCCCNC(=O)c2cc([N+](=O)[O-])cc([N+](=O)[O-])c2)nc(-c2ccccc2)c1-c1ccccc1
[1]
  CC50: > 8.57 µM
[2]
  EC50: 1.41 µM
[3]
  EC50: 0.0337 µM

## Cc1n(-c2ccccc2)c2c([n+]1C)C(=O)c1ccccc1C2=O
[1]
  CC50: 0.427 µM
[2]
  EC50: 0.00655 µM
[3]
  EC50: 0.0129 µM

## NCC(=O)N1CCn2c(nc(-c3ccccc3)c2Nc2ccc3c(c2)OCO3)C1
[1]
  CC50: > 100 µM
[2]
  EC50: 0.162 µM
[3]
  EC50: 0.198 µM

## Oc1ccc(-c2ccc3c(c2)OCO3)cc1CNC1CCN(Cc2ccccc2)CC1
[1]
  CC50: 29.9 µM
[2]
  EC50: 0.598 µM
[3]
  EC50: 0.364 µM

## CCOC(=O)C1=C(CC)NC2=C(C(=O)CC(C)(C)C2)C1c1ccccc1F (centres undefined)
[1]
  CC50: > 100 µM
[2]
  EC50: 0.459 µM
[3]
  EC50: 0.151 µM

## COc1ccc(CNC2CCN(Cc3ccccc3)CC2)cc1OCc1ccccc1
[1]
  CC50: > 10 µM
[2]
  EC50: 1.03 µM
[3]
  EC50: 0.0279 µM

## CC1CCCN(Cc2nnnn2-c2ccc(Cl)cc2)C1 (centres undefined)
[1]
  CC50: > 10 µM
[2]
  EC50: > 1.01 µM
[3]
  EC50: > 1.25 µM

## Cc1cc(C)n(N=Cc2ccc(Cl)cc2)c(=O)c1C#N
[1]
  CC50: > 100 µM
[2]
  EC50: 1.07 µM
[3]
  EC50: 0.183 µM

## Oc1ccc2cc(-c3nc4ccccc4[nH]3)c3nc4ccccc4n3c2c1
[1]
  CC50: > 10 µM
[2]
  EC50: > 1.05 µM
[3]
  EC50: 0.97 µM

## CCOc1cc(C=NN=C(N)N)ccc1OCc1ccccc1
[1]
  CC50: 10.1 µM
[2]
  EC50: 0.235 µM
[3]
  EC50: 0.321 µM

## CC(=O)N(C=C1Sc2ccccc2C1=O)c1ccc(C)cc1
[1]
  CC50: > 100 µM
[2]
  EC50: 10.7 µM
[3]
  EC50: 1.97 µM

## O=[N+]([O-])c1cc(Br)c(Nc2ccccc2)c([N+](=O)[O-])c1
[1]
  CC50: 6.6 µM
[2]
  EC50: 0.167 µM
[3]
  EC50: 0.0758 µM

## OC(CN1CCN(Cc2ccccc2)CC1)Cn1c2ccc(Cl)cc2c2cc(Cl)ccc21 (centres undefined)
[1]
  CC50: 15.7 µM
[2]
  EC50: 0.218 µM
[3]
  EC50: 0.0657 µM

## O=C(Nc1ccccc1)C(=Cc1ccncc1)NC(=O)c1ccccc1
[1]
  CC50: > 100 µM
[2]
  EC50: > 2.7 µM
[3]
  EC50: 0.87 µM

## Cc1cc(C)cc(-n2c(C)cc(/C=C3/SC(=Nc4ccc(Br)cc4)NC3=O)c2C)c1
[1]
  CC50: > 10 µM
[2]
  EC50: 0.325 µM
[3]
  EC50: 0.588 µM

## CC1(C)CN=C(NCc2ccccc2Cl)S1
[1]
  CC50: 34.2 µM
[2]
  EC50: 7.45 µM
[3]
  EC50: 1.48 µM

## CCC(=O)N1CCOc2c(cc(-c3csc4ccccc34)cc2OCCc2ccccn2)C1
[1]
  CC50: > 10 µM
[2]
  EC50: > 1.62 µM
[3]
  EC50: 1.35 µM
